Test results: patent US11225470B2, “Tetrazolinone compounds and its use as pest control agents” (SUMITOMO CHEMICAL COMPANY, LIMITED, priority 2016, dated 2022)

Columns and labels:
Format in all cases: in vivo
[1] = system: kidney bean sclerotinia rot fungi (Sclerotinia sclerotiorum); test: kidney bean sclerotinia rot test; conditions: 200 ppm foliar spray; kidney bean cv NAGAUZURA SAITO; observed after four days
Procedure: Each of plastic pots was filled with soil and thereto Kidney bean (cv; NAGAUZURA SAITO) seeds were sown and the kidney beans were grown in a greenhouse for 8 days. Thereafter, any of the present compounds 1-1, 1-2, 1-3, 1-5, 1-10, 3-16, 3-22, 4-2, 4-3, 4-4, 4-8, or 6-2, each of which was made to a formulation according to the similar method to that of Formulation Example 6, was mixed with water so as to be a prescribed concentration (500 ppm). The adjusted solutions were sprayed to foliar parts so as to adhere adequately on the leaves of the above-mentioned kidney bean. After spraying the mixtures, the kidney beans were air-dried and a PDA medium containing hyphae of kidney bean sclerotinia rot fungi (Sclerotinia sclerotiorum) was placed on the leaves of the kidney bean. After the inoculation, all kidney beans were placed under a high humidity during only night and after four days, a lesion area was observed.
Each of plastic pots was filled with soil and thereto Kidney bean (cv; NAGAUZURA SAITO) seeds were sown and the kidney beans were grown in a greenhouse for 8 days. […] The adjusted solutions were sprayed to foliar parts so as to adhere adequately on the leaves of the above-mentioned kidney bean. […]

[2] = system: soybean frogeye leaf spot disease fungi (Cercospora sojina); test: soybean frogeye leaf spot test, spraying after inoculation; conditions: 200 ppm foliar spray 5 days after inoculation; soybean cv TACHINAGAHA
[3] = system: wheat leaf blotch fungi (Septoria tritici); test: wheat leaf blotch test on 45-day wheat, plants placed outside for 4 days before inoculation; conditions: 300 ppm, 200 L/ha, Formulation Example 4, wheat cv APOGEE grown 45 days
From the text: Each of plastic pots was filled with soil and wheat (cultivar: APOGEE) was sown, and the […] grown in a greenhouse for 45 days. Then, the comparative test compound cf3, the present compound E-15, or E-16, each of which was made to a formulation according to the similar method to that of Formulation Example 4, was mixed with water so as to be 300 ppm. The mixtures were sprayed to foliar parts of the wheat by the volume of 200 L/ha. After spraying the mixtures, the […], and placed outside for 4 days. Thereafter, an aqueous suspension of the spores of wheat leaf blotch fungi (Septoria tritici) was spraying-inoculated.

[4] = system: soybean frogeye leaf spot disease fungi (Cercospora sojina); test: soybean frogeye leaf spot test, spraying before inoculation; conditions: 3.1 ppm foliar spray, inoculation after 2 days; soybean cv Tachinagaha
[5] = system: kidney bean sclerotinia rot fungi (Sclerotinia sclerotiorum); test: kidney bean sclerotinia rot test, plants placed outside for 6 days before inoculation; conditions: 200 ppm foliar spray, observed after six days
From the text: Each of plastic pots was filled with soil and kidney bean (cultivar: NAGAUZURA SAITO) was sown and grown in a greenhouse for 8 days. Then, the comparative test compound cf5, the present compound E-1, E-3, E-11, or E-16, each of which was made to a formulation according to the similar method to that of Formulation Example 6, was mixed with water so as to be 200 ppm. The mixtures were sprayed to foliar parts so as to adhere adequately on the leaves of the above-mentioned kidney bean. After spraying the mixtures, the kidney beans were air-dried, and placed outside for 6 days. Thereafter, a PDA medium containing hyphae of kidney bean sclerotinia rot fungi (Sclerotinia sclerotiorum) was placed on the leaves of the kidney bean. After the inoculation, all kidney beans were placed indoors under a high humidity during only night and after six days, a lesion area was observed.

`CCC(=NN=C(C)c1ccc2ccccc2c1)OCc1c(C)cccc1-n1nnn(C)c1=O` [cf1] was tested, and the “lesion area compared to the lesion area in an untreated kidney bean” value [1] was ≥ 50% and the “lesion area compared to the lesion area in an untreated soybean” value [2] was ≥ 50%.
In the case of `CCC(=NN=C(C)c1ccc(F)cc1)OCc1c(C)cccc1-n1nnn(C)c1=O` [cf3], the “lesion area compared to the lesion area in an untreated wheat” value [3] was ≥ 80%.
In the case of `CCC(=NN=C(C)c1ccccc1)OCc1c(C)cccc1-n1nnn(C)c1=O` [cf5], the “area of lesion compared to that on an untreated bean” value [4] was “more than 70%” and the “lesion area compared to the lesion area in an untreated kidney bean” value [5] was ≥ 70%.
